From patent US20260347403A1, “FUNGICIDAL COMPOUND” (priority 2022, published 2026)
Where two headings read alike, the source gives them in different places. Numbered stars: 1 amine (or outer) side, 2 acyl side, 3 side chain; on linkers, the order of the positions; unused ones are H or OH. Bridge positions count the residues as written; N and C are the ends. Square brackets hold non-standard residues; d marks the D form. Peptide text beside a SMILES is read from it. * marks the point of attachment. Tridecanoyl(12-Me) = CC(C)CCCCCCCCCCC(=O)*; X1 = NC(=O)CC(O)C(N[*:1])C(=O)[*:2]; NMeF = CN[CH](Cc1ccccc1)C(=O)O; NMeN = CN[CH](CC(N)=O)C(=O)O; X2 = CCC(C)CCCCCCCCCCC(=O)*

Experiments:
Botryotinia fuckeliana = assay: Liquid culture, Botryotinia fuckeliana (Botrytis cinerea), Gray Mould, 3-4 days; type: cell-based
Description: (§1) Mycelia fragments or conidia suspensions of a fungus, prepared either freshly from liquid cultures of the fungus or from cryogenic storage, were directly mixed into nutrient broth.
(§2) A stock solution for compound of Formula I(a) and Formula I(b) was produced in DMSO (max. 10 mg/ml), which was diluted with water plus 0.025% Tween®20 to produce a 10× concentrated sample and 10 μl of this solution was pipetted into a microtiter plate (96-well format). The nutrient broth containing the fungal spores/mycelia fragments was then added to give an end concentration of the tested compound. The test plates were incubated in the dark at 24 °C and 96% rh. The inhibition of fungal growth was determined photometrically after 2-7 days, depending on the pathosystem, and percent antifungal activity relative to the untreated check was calculated.
(§3) The effect of the test compound (Formula I(a), I(b) and Lipopeptin A) was tested against the following fungi under the conditions as outlined above and specifically herein below:
Botryotinia fuckeliana (Botrytis cinerea)/Liquid Culture (Gray Mould)
Conidia of the fungus from cryogenic storage were directly mixed into nutrient broth (Vogels broth). The inhibition of growth is determined photometrically 3-4 days after application.

Glomerella lagenarium = assay: Liquid culture, Glomerella lagenarium (Colletotrichum lagenarium), Anthracnose, 3-4 days; type: cell-based; settings: Colletotrichum orbiculare, read-out: % reduction fungal growth
Description: as §1, §2, §3
Glomerella lagenarium (Colletotrichum lagenarium)/Liquid Culture (Anthracnose)
Conidia of the fungus from cryogenic storage were directly mixed into nutrient broth (PDB potato dextrose broth). The inhibition of growth was measured photometrically 3-4 days after application.

Mycosphaerella arachidis = assay: Liquid culture, Mycosphaerella arachidis (Cercospora arachidicola), early leaf spot, 4-5 days; type: cell-based; settings: Mycosphaerella arachidis, read-out: % reduction fungal growth
Description: as §1, §2, §3
Mycosphaerella arachidis (Cercospora arachidicola)/liquid culture (early leaf spot) Conidia of the fungus from cryogenic storage were directly mixed into nutrient broth (PDB potato dextrose broth). The inhibition of growth was determined photometrically 4-5 days after application.

Phaeosphaeria nodorum = assay: Leaf disc test on wheat, Phaeosphaeria nodorum (Glume Blotch), 5-7 days after application; type: in vivo, Phaeosphaeria nodorum (Septoria nodorum) on wheat; settings: Table 5
Description: Leaf disks or leaf segments of various plant species were cut from plants grown in the greenhouse. The cut leaf disks, or segments were placed in multiwell plates (24-well format) onto water agar. The leaf disks were sprayed with a test solution before inoculation with the fungal spores. Compounds to be tested were prepared as DMSO solutions (max. 10 mg/ml) which were diluted to the appropriate concentration with water plus 0.025% Tween® 20 just before spraying. The inoculated leaf disks or segments were incubated under defined conditions (temperature, relative humidity, light, etc.) according to the respective test system. A single evaluation of disease level was carried out by visual evaluation 3-9 days days after inoculation, depending on the pathosystem as indicated below. Percent disease control relative to the untreated check leaf disks or segments was then calculated.
Phaeosphaeria Nodorum (Septoria nodorum)/Wheat/Leaf Disc (Glume Blotch)
Wheat leaf segments cv. Kanzler were placed on agar in a multiwell plate (24-well format) and sprayed with the formulated test compound diluted in water. The leaf disks were inoculated with a spore suspension of the fungus 2 days after application. The inoculated test leaf disks were incubated at 20 °C and 75% rh under a light regime of 12 h light/12 h darkness in a climate cabinet and the activity of a compound was assessed as percent disease control compared to untreated when an appropriate level of disease damage appears in untreated check leaf disks (5-7 days after application)

Zymoseptoria tritici = assay: Leaf painting assay in wheat seedling, Zymoseptoria tritici; type: in vivo, Zymoseptoria tritici on wheat (variety Riband); settings: for % reduction of fungal growth: middle segment; for control on the treated area (middle segment): up to, Table 6, Zymoseptoria tritici
Description: Wheat seedlings of the variety Riband (for Zymoseptoria tritici trials) or variety Arina (for Puccinia recondite trials) were grown in a glasshouse until 14 d after seeding. At this time, such seedlings usually have a first leaf fully emerged (designated L1), a second leaf fully emerged (L2) and a third leaf (L3) that was partially emerged and in the process of development. Using a permanent pen, two dots were applied on the second leaf such as to generate three segments of roughly equal size: Segment A (at the base), segment B (middle part) and segment C (upper part of the leaf). A stock solution of the test compound was produced in DMSO at a concentration of 10′000 ppm. […] The diluted compound was applied to the middle segment of L2 using a conventional cotton stick; the cotton stick was soaked in the diluted compound and rubbed several times on the adaxial leaf surface between the two marks. 1 day later, the complete plant was inoculated with a fungal spore suspension using a paint brush and application of the spore suspension until before run-off.
For infection with Zymoseptoria tritici: The test plants were inoculated by spraying a spore suspension on them 1 day after application (1.5Mio spores per ml in water supplemented with 0.01% Tween®20). After an incubation period of 4 days at 22 °C/21 °C. (day/night) and 95% rh, the inoculated test plants were kept at 22 °C/21 °C (day/night) and 70% rh in a greenhouse. Efficacy was assessed by visual evaluation directly when an appropriate level of disease appears on untreated check plants (usually >80% disease cover at 16-19 days after inoculation).
The three segments of the leaf were evaluated individually.

[1] = tested on: ROS production induced by flg22; assay: Reactive Oxygen Species (ROS) burst assay with wheat leaf discs; settings: Triticum aestivum, foliar
[2] = read-out: Fold change (peak ROS)
[3] = read-out: increase of ROS production induced by flg22 (factor)

SMILES: CCC(C)CCCCCCCCCCC(=O)NC1C(=O)NC(CC(=O)O)C(=O)NC(C(O)CC(N)=O)C(=O)NC(CO)C(=O)N(C)C(CC(N)=O)C(=O)N(C)C(Cc2ccccc2)C(=O)NC(CCC(N)=O)C(=O)NC(CCC(=O)O)C(=O)OC1C (stereo not drawn) [Formula I(b)] (X2-TD[X1]S[NMeN][NMeF]QE; ester 1-C; configuration not given here)
- % reduction fungal growth (Botryotinia fuckeliana; Table 2, 0.41 ppm): 0%
- % reduction fungal growth (Botryotinia fuckeliana; Table 2, 1.2 ppm): 0%
- % reduction fungal growth (Botryotinia fuckeliana; Table 2, 3.7 ppm): 0%
- % reduction fungal growth (Botryotinia fuckeliana; Table 2, 11 ppm): 0%
- % reduction fungal growth (Botryotinia fuckeliana; Table 2, 33 ppm): 0%
- % reduction fungal growth (Botryotinia fuckeliana; Table 2, 100 ppm): 50%
- % reduction fungal growth (Botryotinia fuckeliana; Table 3, 11 ppm): 50%
- % reduction fungal growth (Botryotinia fuckeliana; Table 3, 33 ppm): 50%
- % reduction fungal growth (Botryotinia fuckeliana; Table 3, 100 ppm): 70%
- inhibition of growth at 0.41 ppm (Glomerella lagenarium; Table 2): 0%
- inhibition of growth at 1.2 ppm (Glomerella lagenarium; Table 2): 0%
- inhibition of growth at 3.7 ppm (Glomerella lagenarium; Table 2): 0%
- inhibition of growth at 11 ppm (Glomerella lagenarium; Table 2): 0%
- inhibition of growth at 33 ppm (Glomerella lagenarium; Table 2): 0%
- inhibition of growth at 100 ppm (Glomerella lagenarium; Table 2): 0%
- inhibition of growth at 0.41 ppm (Glomerella lagenarium; Table 3): 0%
- inhibition of growth at 1.2 ppm (Glomerella lagenarium; Table 3): 0%
- inhibition of growth at 3.7 ppm (Glomerella lagenarium; Table 3): 0%
- inhibition of growth at 11 ppm (Glomerella lagenarium; Table 3): 0%
- inhibition of growth at 33 ppm (Glomerella lagenarium; Table 3): 0%
- inhibition of growth at 100 ppm (Glomerella lagenarium; Table 3): 0%
- inhibition of growth at 0.41 ppm (Mycosphaerella arachidis; Table 2): 0%
- inhibition of growth at 1.2 ppm (Mycosphaerella arachidis; Table 2): 0%
- inhibition of growth at 3.7 ppm (Mycosphaerella arachidis; Table 2): 0%
- inhibition of growth at 11 ppm (Mycosphaerella arachidis; Table 2): 90%
- inhibition of growth at 33 ppm (Mycosphaerella arachidis; Table 2): 100%
- inhibition of growth at 100 ppm (Mycosphaerella arachidis; Table 2): 100%
- inhibition of growth at 0.41 ppm (Mycosphaerella arachidis; Table 3): 0%
- inhibition of growth at 1.2 ppm (Mycosphaerella arachidis; Table 3): 0%
- inhibition of growth at 3.7 ppm (Mycosphaerella arachidis; Table 3): 0%
- inhibition of growth at 11 ppm (Mycosphaerella arachidis; Table 3): 100%
- inhibition of growth at 33 ppm (Mycosphaerella arachidis; Table 3): 100%
- inhibition of growth at 100 ppm (Mycosphaerella arachidis; Table 3): 100%
- % reduction of fungal growth (Phaeosphaeria nodorum; 0.82 ppm): 0%
- % reduction of fungal growth (Phaeosphaeria nodorum; 2.5 ppm): 0%
- % reduction of fungal growth (Phaeosphaeria nodorum; 7.4 ppm): 0%
- % reduction of fungal growth (Phaeosphaeria nodorum; 22 ppm): 0%
- % reduction of fungal growth (Phaeosphaeria nodorum; 67 ppm): 0%
- % reduction of fungal growth (Phaeosphaeria nodorum; 200 ppm): 0%
- % reduction of fungal growth (Zymoseptoria tritici; 20 ppm): 0%
- % reduction of fungal growth (Zymoseptoria tritici; 200 ppm): 31%
- control on the treated area (middle segment) (Zymoseptoria tritici): up to 70%
- fold induction at 1 ppm [1, 2]: 1.2
- fold induction at 25 ppm [1, 2]: 1.3
- fold induction at 100 ppm [1, 2]: 3
- fold induction at 100 ppm [1, 3]: ≥ 2.7

SMILES: CC(C)CCCCCCCCCCC(=O)NC1C(=O)NC(CC(=O)O)C(=O)NC(C(O)CC(N)=O)C(=O)NC(CO)C(=O)N(C)C(CC(N)=O)C(=O)N(C)C(Cc2ccccc2)C(=O)NC(CCC(N)=O)C(=O)NC(CCC(=O)O)C(=O)OC1C (stereo not drawn) [Formula I(a)] ({Tridecanoyl(12-Me)}-TD[X1]S[NMeN][NMeF]QE; ester 1-C; configuration not given here)
- % reduction fungal growth (Botryotinia fuckeliana; Table 2, 0.41 ppm): 0%
- % reduction fungal growth (Botryotinia fuckeliana; Table 2, 1.2 ppm): 0%
- % reduction fungal growth (Botryotinia fuckeliana; Table 2, 3.7 ppm): 0%
- % reduction fungal growth (Botryotinia fuckeliana; Table 2, 11 ppm): 0%
- % reduction fungal growth (Botryotinia fuckeliana; Table 2, 33 ppm): 0%
- % reduction fungal growth (Botryotinia fuckeliana; Table 2, 100 ppm): 50%
- % reduction fungal growth (Botryotinia fuckeliana; Table 3, 3.7 ppm): 50%
- % reduction fungal growth (Botryotinia fuckeliana; Table 3, 11 ppm): 50%
- % reduction fungal growth (Botryotinia fuckeliana; Table 3, 33 ppm): 70%
- % reduction fungal growth (Botryotinia fuckeliana; Table 3, 100 ppm): 70%
- inhibition of growth at 0.41 ppm (Glomerella lagenarium; Table 2): 0%
- inhibition of growth at 1.2 ppm (Glomerella lagenarium; Table 2): 0%
- inhibition of growth at 3.7 ppm (Glomerella lagenarium; Table 2): 0%
- inhibition of growth at 11 ppm (Glomerella lagenarium; Table 2): 50%
- inhibition of growth at 33 ppm (Glomerella lagenarium; Table 2): 90%
- inhibition of growth at 100 ppm (Glomerella lagenarium; Table 2): 100%
- inhibition of growth at 0.41 ppm (Glomerella lagenarium; Table 3): 0%
- inhibition of growth at 1.2 ppm (Glomerella lagenarium; Table 3): 0%
- inhibition of growth at 3.7 ppm (Glomerella lagenarium; Table 3): 0%
- inhibition of growth at 11 ppm (Glomerella lagenarium; Table 3): 0%
- inhibition of growth at 33 ppm (Glomerella lagenarium; Table 3): 0%
- inhibition of growth at 100 ppm (Glomerella lagenarium; Table 3): 50%
- inhibition of growth at 0.41 ppm (Mycosphaerella arachidis; Table 2): 0%
- inhibition of growth at 1.2 ppm (Mycosphaerella arachidis; Table 2): 0%
- inhibition of growth at 3.7 ppm (Mycosphaerella arachidis; Table 2): 100%
- inhibition of growth at 11 ppm (Mycosphaerella arachidis; Table 2): 100%
- inhibition of growth at 33 ppm (Mycosphaerella arachidis; Table 2): 100%
- inhibition of growth at 100 ppm (Mycosphaerella arachidis; Table 2): 100%
- inhibition of growth at 0.41 ppm (Mycosphaerella arachidis; Table 3): 0%
- inhibition of growth at 1.2 ppm (Mycosphaerella arachidis; Table 3): 0%
- inhibition of growth at 3.7 ppm (Mycosphaerella arachidis; Table 3): 0%
- inhibition of growth at 11 ppm (Mycosphaerella arachidis; Table 3): 70%
- inhibition of growth at 33 ppm (Mycosphaerella arachidis; Table 3): 100%
- inhibition of growth at 100 ppm (Mycosphaerella arachidis; Table 3): 100%
- % reduction of fungal growth (Phaeosphaeria nodorum; 0.82 ppm): 0%
- % reduction of fungal growth (Phaeosphaeria nodorum; 2.5 ppm): 0%
- % reduction of fungal growth (Phaeosphaeria nodorum; 7.4 ppm): 0%
- % reduction of fungal growth (Phaeosphaeria nodorum; 22 ppm): 0%
- % reduction of fungal growth (Phaeosphaeria nodorum; 67 ppm): 0%
- % reduction of fungal growth (Phaeosphaeria nodorum; 200 ppm): 50%
- % reduction of fungal growth (Zymoseptoria tritici; 20 ppm): 0%
- % reduction of fungal growth (Zymoseptoria tritici; 200 ppm): 46%
- control on the treated area (middle segment) (Zymoseptoria tritici): up to 70%
- fold induction at 1 ppm [1, 2]: 0.8
- fold induction at 25 ppm [1, 2]: 0.8
- fold induction at 100 ppm [1, 2]: 2.7
- fold induction at 100 ppm [1, 3]: ≥ 2.7
